Data published in patent US12312333B2, “SK channel positive allosteric modulators” (Chapman University, priority 2021, dated 2025).

Target: T1, human KCa2.3 channels (Homo sapiens, UniProt P0DP23+Q9UGI6)
T1 construct: expressed in transfected cells; host or cells: HEK293
Test: Inside-out patch-clamp potentiation of KCa2.3 channels expressed in HEK293 cells
Assay type: cell-based
Settings: for EC50: inside-out patch, HEK293, 0.15 μM Ca2+, read-out: EC50 on potentiating KCa2.3 channels
Source text: The effects of the two newly synthesized compounds on human KCa2.3 channels (FIG. 7A) were examined.
The effect of newly synthesized compounds on the KCa2.x/KCa3.1 channels was investigated as previously described (Nam, Y. W.; et al, Acta Physiol (Oxf) 2020, e13552; Nam, Y. W.; et al. Scientific reports 2018, 8 (1), 10749). Briefly, the rat KCa2.2a, human KCa2.1, human KCa2.3 or human KCa3.1 channels cDNA constructs were either generated in-house or through molecular cloning services (Genscript). The channel cDNAs, along with CaM and GFP, at a ratio of 7:4:2 (ORF ratios), were transfected into HEK293 cells by the calcium-phosphate method. KCa currents were recorded 1-2 days after transfection, with an Axon200B amplifier (Molecular Devices) at room temperature. The resistance of the patch electrodes ranged from 3-5 MΩ. The pipette solution contained (in mM): 140 KCl, 10 Hepes (pH 7.4), 1 MgSO4. The bath solution containing (in mM): 140 KCl, 10 Hepes (pH 7.2), 1 EGTA, 0.1 Dibromo-BAPTA, and 1 HEDTA was mixed with Ca^2+ to obtain the desired free Ca^2+ concentrations, calculated using the software by Chris Patton of Stanford University (https://somapp.ucdmc.ucdavis.edu/pharmacology/bers/maxchelator/webmaxc/webmaxcS.htm). […] Briefly, a standard curve was generated using the Ca^2+ buffers from the kit and a fluorescence Ca^2+ indicator. Then, the Ca^2+ concentrations of the bath solution were determined through interpolation on the standard curve.
High resistance seals (>1 GΩ) were formed before inside-out patches were obtained. […] Currents were recorded by repetitive 1-s-voltage ramps from −100 mV to +100 mV from a holding potential of 0 mV. […]
To measure the effect of CyPPA (Alomone Labs) and newly synthesized compounds, the intracellular face was exposed to bath solutions with 0.15 μM Ca^2+. One minute after switching of bath solutions, ten sweeps with a 1-s interval were recorded at a series of concentrations of compound in the presence of 0.15 μM Ca^2+. The maximal KCa2.x/KCa3.1 current in response to 10 μM Ca^2+ was then recorded. […]

| potency on KCa2.3 compared to KCa2.2a channels | EC50 [nM] | SMILES |
| --- | --- | --- |
| significantly smaller | 190 ± 23 | Cc1cc(Nc2ccc(F)c(Cl)c2)nc(-n2nc(C)cc2C)n1 [Compound 2o, N-(3-Chloro-4-fluorophenyl)-2-(3,5-dimethyl-1H-pyrazol-1-yl)-6-methyl-pyrimidin-4-amine] |
| – | 600 ± 35 | Cc1cc(Nc2cc(Cl)ccc2F)nc(-n2nc(C)cc2C)n1 [Compound 2q, N-(5-Chloro-2-fluorophenyl)-2-(3,5-dimethyl-1H-pyrazol-1-yl)-6-methylpyrimidin-4-amine] |
